Earlier results, collected in patent publication US20020048596A1, “PREPARATION FOR THE TRANSPORT OF AN ACTIVE SUBSTANCE ACROSS BARRIERS” (priority 1999, published 2002).
Like-named read-outs stand apart in the source and are kept apart here.

Row | Molecule | CMC (in water / suspension medium) | other results
1 | CCCCCCCCCC(=O)OC[C@H](COP(=O)([O-])OCC[N+](C)(C)C)OC(=O)CCCCCCCCC [didecanoyl phosphatidyl choline] |  | CMC (unit not given): CMC ∞ 10^−6
2 | CC(C)Cc1ccc(C(C)C(=O)O)cc1 (stereo not shown) [ibuprofen, reference compound] |  | solubility: ibuprofen, solubility ≦ 5 × 10^−5M
3 | distearoyl glycerophosphoethanolamine triazopolyethylene glycol (5000) | CMC = 10^−5M | 
4 | distearoyl phosphomaltobionamide | CMC = 10^−5 M | 
